The experiment has as its target T1, soluble human BACE (Homo sapiens, UniProt P56817).
T1 construct: cells secreting human recombinant soluble BACE; made in house; conditioned medium
Briefly: BACE activity Cell Free Assay (ELISA of cleaved synthetic APP substrate). In kind it is biochemical. Here is the method:
A synthetic APP substrate that can be cleaved by beta˜secretase and having N-terminal biotin is used to assay beta-secretase activity in the presence or absence of the inhibitory compounds. […] The substrate and test compounds are added to 384 well polypropylene plates. The reaction is initiated by the addition of soluble BACE enzyme to a final volume of 12.5 μL per well. The final assay conditions are: 0.001˜300 μM compound inhibitor, 0.05M sodium acetate (pH 4.5), 3 μM substrate, soluble human BACE, and 2% DMSO. Concentrated conditioned media from cells secreting human recombinant soluble BACE was titrated to provide a source of BACE enzyme. The cell media can be used as either a crude BACE prep or BACE can be purified using any number of techniques, including immobilized BACE inhibitor purification columns. The assay mixture is incubated for 1 hour at 37° C., and the reaction is quenched by the addition of an equal volume of 0.1M Tris, pH 8. Half of the quenched mix is incubated on clear streptavidin coated 384 well polystyrene plates for 1 hour. An ELISA is then performed using an in˜house antibody that specifically recognizes the new C˜terminus created after cleavage by BACE. […] (These polyclonal antibodies were raised in rabbits by immunizing with antigen comprised of six amino acid residues present at the carboxy terminus of the wild-type soluble APPbeta sequence (NH2-ISEVKM-COOH) or seven amino acid residues present at the carboxy terminus of the Swedish mutation at the beta cleavage site (NH2-EISEVNL˜COOH) conjugated to keyhole limpet hemacyanin by methods known to those skilled in the art.) A secondary anti˜species Horseradish Peroxidase (HRP) conjugated antibody is then utilized. The readout, following assay development with TMB substrate and quenching with 0.09M sulfuric acid, is absorbance at 450 nm.
A general note: ELISA stands for enzyme-linked immunosorbent assay.
T1 sequence (P56817 46-457 limits assumed): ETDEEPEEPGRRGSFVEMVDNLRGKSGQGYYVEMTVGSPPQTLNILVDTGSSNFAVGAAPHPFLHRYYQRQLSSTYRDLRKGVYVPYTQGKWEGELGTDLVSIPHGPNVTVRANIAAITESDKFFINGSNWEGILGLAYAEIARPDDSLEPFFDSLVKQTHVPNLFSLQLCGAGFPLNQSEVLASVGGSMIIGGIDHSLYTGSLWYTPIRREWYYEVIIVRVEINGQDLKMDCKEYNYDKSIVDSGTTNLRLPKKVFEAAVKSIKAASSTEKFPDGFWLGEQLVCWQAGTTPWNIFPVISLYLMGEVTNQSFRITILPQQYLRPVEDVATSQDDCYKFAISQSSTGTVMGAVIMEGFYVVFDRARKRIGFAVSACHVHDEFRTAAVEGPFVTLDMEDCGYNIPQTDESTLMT
The IC50 is the concentration that gives 50% inhibition. Regarding `CCOc1cccc(CN2CCC3(C=CC(=O)N3c3cccc(F)c3)CC2C)c1` (racemic) [Example 1, Racemic (5R,7S),(5S,7R)-8-(3-ethoxybenzyl)-1-(3-fluorophenyl)-7-methyl-1,8-diazaspiro[4.5]dec-3-en-2-one], the IC50 was in the range of 10 to 100 µM. `Cc1ccc(Oc2cccc(CN3CCC4(C=CC(=O)N4c4cccc(F)c4)CC3C)c2)cc1` (racemic) [Example 2, Racemic (5R,7S),(5S,7R)-1-(3-fluorophenyl)-7-methyl-8-[3-(4-methylphenoxy)benzyl]-1,8-diazaspiro[4.5]dec-3-en-2-one] had an IC50 of 1 to 10 µM. To `COc1ccc(Oc2cccc(CN3CCC4(C=CC(=O)N4c4cccc(F)c4)CC3C)c2)cc1` (racemic) [Example 3, Racemic (5R,7S),(5S,7R)-1-(3-fluorophenyl)-8-[3-(4-methoxyphenoxy)benzyl]-7-methyl-1,8-diazaspiro[4.5]dec-3-en-2-one] belongs 10 to 100 µM. `CC1CC2(C=CC(=O)N2c2cccc(F)c2)CCN1Cc1cccc(S(=O)(=O)N2CCCC2)c1` (racemic) [Example 4, Racemic (5R,7S),(5S,7R)-1-(3-fluorophenyl)-7-methyl-8-[3-(pyrrolidin-1-ylsulfonyl)benzyl]-1,8-diazaspiro[4.5]dec-3-en-2-one]: the half-inhibitory concentration (IC50) lay in the range of 10 to 100 µM. In turn, `CC1CC2(C=CC(=O)N2c2cccc(F)c2)CCN1Cc1cccc(COc2cc(F)cc(F)c2)c1` (racemic) [Example 5, Racemic (5R,7S),(5S,7R)-8-{3-[(3,5-difluorophenoxy)methyl]benzyl}-1-(3-fluorophenyl)-7-methyl-1,8-diazaspiro[4.5]dec-3-en-2-one] returned an IC50 of 10 to 100 µM. To `CC1CC2(C=CC(=O)N2c2cccc(F)c2)CCN1Cc1cccc(O)n1` (racemic) [Example 6, Racemic (5R,7S),(5S,7R)-1-(3-fluorophenyl)-8-[(6-hydroxypyridin-2-yl)methyl]-7-methyl-1,8-diazaspiro[4.5]dec-3-en-2-one] belongs 100 to 300 µM; to `CC1CC2(C=CC(=O)N2c2cccc(F)c2)CCN1Cc1cccc(C#N)c1` (racemic) [Example 7, Racemic 3-{[(5R,7S),(5S,7R)-1-(3-fluorophenyl)-7-methyl-2-oxo-1,8-diazaspiro[4.5]dec-3-en-8-yl]methyl}benzonitrile], 10 to 100 µM. Take `COc1cccc(CN2CCC3(C=CC(=O)N3c3cccc(F)c3)CC2C)c1` (racemic) [Example 8, Racemic (5R,7S),(5S,7R)-1-(3-fluorophenyl)-8-(3-methoxybenzyl)-7-methyl-1,8-diazaspiro[4.5]dec-3-en-2-one]: the IC50 is 100 to 300 µM. `CC1CC2(C=CC(=O)N2c2cccc(F)c2)CCN1Cc1ccc(O)cc1O` (racemic) [Example 9, Racemic (5R,7S),(5S,7R)-8-(2,4-dihydroxybenzyl)-1-(3-fluorophenyl)-7-methyl-1,8-diazaspiro[4.5]dec-3-en-2-one] returned an IC50 of 100 to 300 µM.

Molecule `CCCn1nccc1CN1CCC2(C=CC(=O)N2c2cccc(F)c2)CC1C` (racemic) [Example 10, Racemic (5R,7S),(5S,7R)-1-(3-fluorophenyl)-7-methyl-8-[(1-propyl-1H-pyrazol-5-yl)methyl]-1,8-diazaspiro[4.5]dec-3-en-2-one] gave an IC50 of 10 to 100 µM. `CC1CC2(C=CC(=O)N2c2cccc(F)c2)CCN1Cc1ccc2[nH]ccc2c1` (racemic) [Example 11, Racemic (5R,7S),(5S,7R)-1-(3-fluorophenyl)-8-(1H-indol-5-ylmethyl)-7-methyl-1,8-diazaspiro[4.5]dec-3-en-2-one] gave an IC50 of 10 to 100 µM. `COc1cc(CN2CCC3(C=CC(=O)N3c3cccc(F)c3)CC2C)ccc1O` (racemic) [Example 12, Racemic (5R,7S),(5S,7R)-1-(3-fluorophenyl)-8-(4-hydroxy-3-methoxybenzyl)-7-methyl-1,8-diazaspiro[4.5]dec-3-en-2-one] came in with an IC50 of 1 to 10 µM. To `COc1cc(CN2CCC3(C=CC(=O)N3c3cccc(F)c3)CC2C)ccc1F` (racemic) [Example 13, Racemic (5R,7S),(5S,7R)-8-(4-fluoro-3-methoxybenzyl)-1-(3-fluorophenyl)-7-methyl-1,8-diazaspiro[4.5]dec-3-en-2-one] belongs 10 to 100 µM; to `COc1ccc(F)c(CN2CCC3(C=CC(=O)N3c3cccc(F)c3)CC2C)c1` (racemic) [Example 14, Racemic (5R,7S),(5S,7R)-8-(2-fluoro-5-methoxybenzyl)-1-(3-fluorophenyl)-7-methyl-1,8-diazaspiro[4.5]dec-3-en-2-one], 100 to 300 µM; to `CC1CC2(C=CC(=O)N2c2cccc(F)c2)CCN1Cc1ccc(O)c(Cl)c1` (racemic) [Example 15, Racemic (5R,7S),(5S,7R)-8-(3-chloro-4-hydroxybenzyl)-1-(3-fluorophenyl)-7-methyl-1,8-diazaspiro[4.5]dec-3-en-2-one], 1 to 10 µM. `CC(C)Oc1cccc(CN2CCC3(C=CC(=O)N3c3cccc(F)c3)CC2C)c1` (racemic) [Example 16, Racemic (5R,7S),(5S,7R)-1(3-fluorophenyl)-8-(3-isopropoxybenzyl)-7-methyl-1,8-diazaspiro[4.5]dec-3-en-2-one] displayed an IC50 of 1 to 10 µM.

In turn, `CCCOc1cccc(CN2CCC3(C=CC(=O)N3c3cccc(F)c3)CC2C)c1` (racemic) [Example 17, Racemic (5R,7S),(5S,7R)-1-(3-fluorophenyl)-7-methyl-8-(3-propoxybenzyl)-1,8-diazaspiro[4.5]dec-3-en-2-one] yielded an IC50 of 10 to 100 µM. On to `CC(C)COc1cccc(CN2CCC3(C=CC(=O)N3c3cccc(F)c3)CC2C)c1` (racemic) [Example 18, Racemic (5R,7S),(5S,7R)-1-(3-fluorophenyl)-8-(3-isobutoxybenzyl)-7-rnethyl-1,8-diazaspiro[4.5]dec-3-en-2-one], for which the IC50 lay within 10 to 100 µM. As to `CC1CC2(C=CC(=O)N2c2cccc(F)c2)CCN1Cc1cccc(-c2ccccn2)c1` (racemic) [Example 19, Racemic (5R,7S),(5S,7R)-1-(3-fluorophenyl)-7-methyl-8-(3-pyridin-2-ylbenzyl)-1,8-diazaspiro[4.5]dec-3-en-2-one], the IC50 lay in the range of 10 to 100 µM. As to `CC1CC2(C=CC(=O)N2c2cccc(F)c2)CCN1Cc1cccc(OC2CCCC2)c1` (racemic) [Example 20, Racemic (5R,7S),(5S,7R)-8-[3-(cyclopentyloxy)benzyl]-1-(3-fluorophenyl)-7-methyl-1,8-diazaspiro[4.5]dec-3-en-2-one], the IC50 lay within 10 to 100 µM.

`Cc1ccncc1-c1cccc(CN2CCC3(C=CC(=O)N3c3cccc(F)c3)CC2C)c1` (racemic) [Example 21, Racemic (5R,7S),(5S,7R)-1-(3-fluorophenyl)-7-methyl-8-[3-(4-methylpyridin-3-yl)benzyl]-1,8-diazaspiro[4.5]dec-3-en-2-one]: the IC50 fell in the range of 1 to 10 µM.

As for `CC1CC2(C=CC(=O)N2c2cccc(F)c2)CCN1Cc1cccc(Oc2ccccc2)c1` (racemic) [Example 22, Racemic (5R,7S),(5S,7R)-1-(3-fluorophenyl)-7-methyl-8-(3-phenoxybenzyl)-1,8-diazaspiro[4.5]dec-3-en-2-one], the IC50 fell in the range of 10 to 100 µM. With `CC1CC2(C=CC(=O)N2c2cccc(F)c2)CCN1Cc1cc(Br)ccc1F` (racemic) [Example 23, Racemic (5R,7S),(5S,7R)-8-(5-bromo-2-fluorobenzyl)-1-(3-fluorophenyl)-7-methyl-1,8-diazaspiro[4.5]dec-3-en-2-one], the IC50 fell in the range of 10 to 100 µM. Turning to `CC1CC2(C=CC(=O)N2c2cccc(F)c2)CCN1Cc1ccc(F)c(Br)c1` (racemic) [Example 24, Racemic (5R,7S),(5S,7R)-8-(3-bromo-4-fluorobenzyl)-1-(3-fluorophenyl)-7-methyl-1,8-diazaspiro[4.5]dec-3-en-2-one], the IC50 lay within 100 to 300 µM.

Take `CC1CC2(C=CC(=O)N2c2cccc(F)c2)CCN1Cc1cccc(-c2cncc(C#N)c2)c1` (racemic) [Example 25, Racemic 5-(3-{[(5R,7S),(5S,7R)-1-(3-fluorophenyl)-7-methyl-2-oxo-1,8-diazaspiro[4.5]dec-3-en-8-yl]methyl}phenyl)nicotinonitrile]: the IC50 was 10 to 100 µM.

On to `CC1CC2(C=CC(=O)N2c2cccc(F)c2)CCN1Cc1nc(-c2ccc(C#N)cc2)cs1` (racemic) [Example 26, Racemic 4-(2-{[(5R,7S),(5S,7R)-1-(3-fluorophenyl)-7-methyl-2-oxo-1,8-diazaspiro[4.5]dec-3-en-8-yl]methyl}-1,3-thiazol-4-yl)benzonitrile], for which the IC50 lay in the range of 10 to 100 µM. As to `CC1CC2(C=CC(=O)N2c2cccc(F)c2)CCN1Cc1nc(-c2cccc(C#N)c2)cs1` (racemic) [Example 27, Racemic 3-(2-{[(5R,7S),(5S,7R)-1-(3-fluorophenyl)-7-methyl-2-oxo-1,8-diazaspiro[4.5]dec-3-en-8-yl]methyl}-1,3-thiazol-4-yl)benzonitrite], the IC50 was 10 to 100 µM.
